Measurements published in US20160024051A1, “SALTS AND SOLID FORMS OF ISOQUINOLINONES AND COMPOSITION COMPRISING AND METHODS OF USING THE SAME” (INFINITY PHARMACEUTICALS, INC., priority 2013, published 2016).

Legend:
[1] = Storage at 40° C./75% RH (elevated humidity) for 1 week, re-analysis by XRPD/HPLC; settings: for Storage 40° C./75% RH: salt screen solids, 1 week, XRPD pattern or observation
Procedure: The crystalline solids were filtered, dried at ambient conditions, and stored at 40° C./75% RH for 1 week and analyzed by ^1H NMR/IC.
Samples from the screen using amorphous free base Compound 1 were analysed by ^1H-NMR and DSC, and re-analysis by XRPD was also carried out after drying at 50° C./vacuum and storage at 40° C./75% RH (the same sample was dried and stored at elevated humidity).

[2] = Polymorphism study: maturation (temperature cycling RT to 50° C.) in solvents, XRPD; type: physicochemical
Procedure: One of 21 solvents was added to each vial in a number of aliquots (up to 30 volumes), with shaking. All the samples were then placed under maturation between RT to 50° C. (4 hours at each temperature) for 3 days. After maturation the samples were analysed by XRPD. Clear solutions were cooled to −20° C. (freezer). If no precipitation occurred samples were evaporated at RT.
Samples were placed under maturation between RT-50° C. (4 hours cycle) for 3 days. After maturation the samples were analyzed by XRPD. Clear solutions were then cooled to −20° C. (freezer). If no precipitation occurred, samples were evaporated at RT.
The corresponding solvents and solvent mixtures were added in portions of (a total of) 5, 10, 20, and 30 volumes at 50° C., with shaking, aiming for clear solutions. After each addition, the vials were allowed to shake for 20 minutes, after which observations were made. Solutions were allowed to evaporate, whereas slurries were set for 8 hour temperature cycling maturation, between RT and 50° C., for 5 days.
The oils obtained by solvent evaporation were used for the maturation screen. Anhydrous solvents (5 volumes; 100 μL) were used in order to minimise the amount of water present. Any solutions were allowed to slowly evaporate, whereas slurries were set for 8 hour temperature cycling maturation, between RT and 50° C. […] These were matured for a further 24 hours before performing XRPD analysis.
The selected solvents and solvent mixtures (5 to 20 volumes) were added with stirring. Any solutions were allowed to slowly evaporate, whereas slurries were set for 8 hour temperature cycling maturation, between RT and 50° C., for 2 days.
Crystals were ground in order to analyse them by XRPD. Suspensions were set for temperature cycling for a total of five days after which time XRPD analysis was carried out.

[3] = Gravimetric vapour sorption (GVS); type: physicochemical; settings: for GVS: moisture on loading: loaded at 40% RH, 25° C.; for GVS: XRPD after the experiment: re-analysis by XRPD after GVS
Procedure: Sorption isotherms were obtained using a Hiden IGASorp moisture sorption analyser, controlled by CFRSorp software. The sample temperature was maintained at 25° C. by a Huber re-circulating water bath. The humidity was controlled by mixing streams of dry and wet nitrogen, with a total flow rate of 250 ml/min. The relative humidity (RH) was measured by a calibrated Vaisala RH probe (dynamic range of 0-95% RH), located near the sample. The weight change, (mass relaxation) of the sample as a function of % RH was constantly monitored by the microbalance (accuracy ±0.001 mg). Typically 10-20 mg of sample was placed in a tared mesh stainless steel basket under ambient conditions. The sample was loaded and unloaded at 40% RH and 25° C. (typical room conditions). A moisture sorption isotherm was performed as outlined below (2 scans giving 1 complete cycle). The standard isotherm was performed at 25° C. at 10% RH intervals over a 0-90% RH range.
The software uses a least squares minimisation procedure together with a model of the mass relaxation, to predict an asymptotic value. The measured mass relaxation value must be within 5% of that predicted by the software, before the next % RH value is selected. The minimum equilibration time was set to 1 hour and the maximum to 4 hours. The sample was recovered after completion of the isotherm and re-analysed by XRPD.

[4] = Solubility assessment using FB Hydrate Form 2; type: physicochemical; settings: for Solubility: (RT)
Procedure: The best solvent systems (clear solutions) were methanol:anisole 1:1 and DMSO (10 volumes, at RT), dioxane (10 volumes, 50° C.), chloroform (20 volumes, RT). […]

[5] = Solubility of free base hydrate and salts versus pH (Table 24); type: physicochemical

Question: Which “Storage 40° C./75% RH” value ([1]; listed as 1-2-Ethane disulfonic acid) does the source give for COc1cc(-c2cccc3cc([C@H](C)Nc4nc(N)ncc4C#N)n(-c4ccccc4)c(=O)c23)ccn1 [listing 1 of 2 here] here?
Answer: acid salt Pattern 1

Question: Which “Storage 40° C./75% RH” value ([1]; listed as 2-Hydroxyethane sulfonic acid) does the source give for COc1cc(-c2cccc3cc([C@H](C)Nc4nc(N)ncc4C#N)n(-c4ccccc4)c(=O)c23)ccn1 [listing 2 of 2 here] here?
Answer: Deliquesced

Question: What does the source list for COc1cc(-c2cccc3cc([C@H](C)Nc4nc(N)ncc4C#N)n(-c4ccccc4)c(=O)c23)ccn1.O=S(=O)(O)O.O=S(=O)(O)O [Amorphous Bis-Sulfuric Acid Salt]?
Answer: XRPD ([2]; amorphous oil in anhydrous BuOAc 100 μL, maturation 48 h, RT-50° C. cycling): Amorphous; XRPD ([2]; amorphous oil in anhydrous DCM 100 μL, maturation 48 h, RT-50° C. cycling): Amorphous; XRPD ([2]; amorphous oil in anhydrous DIPE 100 μL, maturation 48 h, RT-50° C. cycling): Amorphous; XRPD ([2]; amorphous oil in anhydrous Dioxane 100 μL, maturation 48 h, RT-50° C. cycling): Amorphous glass; XRPD ([2]; amorphous oil in anhydrous EtOAc 100 μL, maturation 48 h, RT-50° C. cycling): Amorphous; XRPD ([2]; amorphous oil in anhydrous IPA 100 μL, maturation 48 h, RT-50° C. cycling): Amorphous glass; XRPD ([2]; amorphous oil in anhydrous Methanol 100 μL, solution set for evaporation): Oil; XRPD ([2]; amorphous oil in anhydrous TBME 100 μL, maturation 48 h, RT-50° C. cycling): Amorphous; XRPD ([2]; amorphous oil in anhydrous THF 100 μL, maturation 48 h, RT-50° C. cycling): Amorphous; XRPD ([2]; amorphous oil in anhydrous Toluene 100 μL, maturation 48 h, RT-50° C. cycling): Amorphous

Question: Which “GVS: second cycle reversible moisture uptake” value ([3]; between 0-90% RH) does the source give for CC(=O)O.COc1cc(-c2cccc3cc([C@H](C)Nc4nc(N)ncc4C#N)n(-c4ccccc4)c(=O)c23)ccn1.COc1cc(-c2cccc3cc([C@H](C)Nc4nc(N)ncc4C#N)n(-c4ccccc4)c(=O)c23)ccn1 [Batch 1 of Form 6] here?
Answer: cycle shows 4.9%

Question: What about the “GVS: moisture on loading” value [3] of the same compound?
Answer: 6.3% w/w moisture on

Question: What about the “GVS: XRPD after the experiment” value [3] of the same compound?
Answer: anhydrous Form 4

Question: For COc1cc(-c2cccc3cc([C@H](C)Nc4nc(N)ncc4C#N)n(-c4ccccc4)c(=O)c23)ccn1.O [FB Hydrate Form 2], which “Solubility at 50° C.” value ([4]; 2-MeTHF, 50 vols) is on record?
Answer: ✓

Question: What about the “Solubility at 50° C.” value ([4]; DCM, 75 vols) of the same compound?
Answer: ✓

Question: And the “Solubility at 50° C.” value ([4]; DCM:MeOH 1:1, 75 vols)?
Answer: ✓

Question: And the Solubility ([4]; DMSO, 10 vols)?
Answer: ✓

Question: What about the “Solubility at 50° C.” value ([4]; Dioxane, 10 vols) of the same compound?
Answer: ✓

Question: And the “Solubility at 50° C.” value ([4]; MeCN/5% water, 75 vols)?
Answer: ✓

Question: And the Solubility ([4]; MeOH/anisole, 10 vols)?
Answer: ✓

Question: And the “Solubility at 50° C.” value ([4]; THF, 50 vols)?
Answer: Almost

Question: What about the “Solubility at 50° C.” value ([4]; THF, 75 vols) of the same compound?
Answer: ✓

Question: What about the Solubility ([4]; chloroform, 20 vols) of the same compound?
Answer: ✓

Question: What about the XRPD ([2]; FB Hydrate Form 2 in 1-butanol, Maturation) of the same compound?
Answer: Crystalline Form 5

Question: What about the XRPD ([2]; FB Hydrate Form 2 in 2-MeTHF, Evaporation yielded oil, maturation of oil) of the same compound?
Answer: Crystalline Form 5

Question: And the XRPD ([2]; FB Hydrate Form 2 in Acetone, Maturation)?
Answer: Crystalline Form 5

Question: What about the XRPD ([2]; FB Hydrate Form 2 in DCM:MeOH 1:1, Crystallization in fridge) of the same compound?
Answer: Crystalline Form 5 + Form 1

Question: What about the XRPD ([2]; FB Hydrate Form 2 in DCM, Crystallization in fridge) of the same compound?
Answer: Crystalline Form 5

Question: What about the XRPD ([2]; FB Hydrate Form 2 in DMSO, No crystallization in fridge, set for evaporation) of the same compound?
Answer: Amorphous

Question: And the XRPD ([2]; FB Hydrate Form 2 in Dioxane, Evaporation yielded oil, maturation of oil)?
Answer: Crystalline Form 5 + Form 3

Question: And the XRPD ([2]; FB Hydrate Form 2 in EtOAc, Maturation)?
Answer: Crystalline Form 5

Question: And the XRPD ([2]; FB Hydrate Form 2 in EtOH/5% water, Maturation)?
Answer: Crystalline Form 5

Question: What about the XRPD ([2]; FB Hydrate Form 2 in EtOH/water 1:1, Maturation) of the same compound?
Answer: Crystalline Form 2

Question: What about the XRPD ([2]; FB Hydrate Form 2 in EtOH, Maturation) of the same compound?
Answer: Crystalline Form 5

Question: What about the XRPD ([2]; FB Hydrate Form 2 in IPA, Maturation) of the same compound?
Answer: Crystalline Form 5

Question: What about the XRPD ([2]; FB Hydrate Form 2 in IPAc, Maturation) of the same compound?
Answer: Crystalline Form 5

Question: What about the XRPD ([2]; FB Hydrate Form 2 in MIBK, Maturation) of the same compound?
Answer: Crystalline Form 5

Question: What about the XRPD ([2]; FB Hydrate Form 2 in MeCN/5% water, Crystallization in fridge) of the same compound?
Answer: Crystalline Form 5

Question: What about the XRPD ([2]; FB Hydrate Form 2 in MeOH/anisole, Crystallization in fridge) of the same compound?
Answer: Crystalline Form 5

Question: What about the XRPD ([2]; FB Hydrate Form 2 in THF, Crystallization in fridge) of the same compound?
Answer: Crystalline Form 5

Question: What about the XRPD ([2]; FB Hydrate Form 2 in acetonitrile, Maturation) of the same compound?
Answer: Crystalline Form 5

Question: What about the XRPD ([2]; FB Hydrate Form 2 in chloroform, Cooling in fridge yielded oil, maturation of oil) of the same compound?
Answer: Crystalline Form 5

Question: Which “GVS: moisture uptaken” value ([3]; between 70-90% RH, with hysteresis on desorption) does the source give for COc1cc(-c2cccc3cc([C@H](C)Nc4nc(N)ncc4C#N)n(-c4ccccc4)c(=O)c23)ccn1 [Form 4 of Free Base Compound 1] here?
Answer: 4.8 % w/w

Question: And the “GVS: moisture on loading” value [3]?
Answer: 0.3 % w/w

Question: And the “GVS: XRPD after the experiment” value [3]?
Answer: No changes by XRPD after the experiment.

Question: Which results are given for COc1cc(-c2cccc3cc([C@H](C)Nc4nc(N)ncc4C#N)n(-c4ccccc4)c(=O)c23)ccn1 [Form 6 of the free base of Compound 1]?
Answer: GVS behaviour (hydration / desolvation) ([3]; text statements, listed as Form 6): Desolvation to the anhydrous Form 4; solid form after storage at elevated humidity ([1]; elevated humidity conditions, not specified in the sentence, listed as Form 6): conversion to Hydrate Form 3

Question: For COc1cc(-c2cccc3cc([C@H](C)Nc4nc(N)ncc4C#N)n(-c4ccccc4)c(=O)c23)ccn1.O=C(O)/C=C\C(=O)O [Maleic acid salt], which Solubility ([5]; 0.1N HCl, 37° C., at saturation) is on record?
Answer: 34 mg/mL

Question: And the Solubility ([5]; Simulated Gastric Fluid)?
Answer: >19 mg/mL

Question: What about the Solubility ([5]; Simulated Intestinal Fluid) of the same compound?
Answer: 0.01 mg/mL

Question: What about the Solubility ([5]; Water (pH 4.43)) of the same compound?
Answer: ~0.2 mg/mL (pH 4.43)

Question: And the Solubility ([5]; citrate buffer, pH 2.5, at 37° C.)?
Answer: 3.13 mg/mL at 37 °C

Question: And the Solubility ([5]; citrate buffer, pH 2.5, at RT)?
Answer: 1.8 mg/mL at RT;

Question: And the Solubility ([5]; pH 1.6, 37° C.)?
Answer: >4

Question: And the Solubility ([5]; pH 1.6, RT)?
Answer: >4

Question: What about the Solubility ([5]; pH 2.5, 37° C.) of the same compound?
Answer: 3.07

Question: What about the Solubility ([5]; pH 2.5, RT) of the same compound?
Answer: 3.57

Question: And the Solubility ([5]; pH 2.9, 37° C.)?
Answer: 1.62

Question: What about the Solubility ([5]; pH 2.9, RT) of the same compound?
Answer: 1.39

Question: And the Solubility ([5]; pH 3.8, 37° C.)?
Answer: 0.31

Question: What about the Solubility ([5]; pH 3.8, RT) of the same compound?
Answer: 0.24
